Measured values as given in patent publication US20240018146A1, “COMPOSITIONS AND METHODS OF USING THE SAME FOR TREATMENT OF NEURODEGENERATIVE AND MITOCHONDRIAL DISEASE” (MITOKININ, INC., priority 2020, published 2024).
Converted amounts (≈) assume the structure as drawn. Where two headings read alike, the source gives them in different places.

Legend:
HeLa MKYP cells [1] = test: Human mitophagy assay (HeLa mKeima assay, FACS); format: cell-based; settings: for EC50: Homo sapiens, HeLa
Outline: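 HeLa cells carrying the pH-sensitive mtKeima tag incubated 16 h with compound at several concentrations, then 1 uM FCCP/oligomycin for 6 h. FACS detects mitochondria in lysosomes through the Keima emission shift, quantified as percentage of cells in mitophagy.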

HeLa MKYP cells [2] = test: Cell death measured by DAPI staining, with 1 μM FCCP/oligomycin or no toxin (no FO); format: cell-based
Outline: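 HeLa MKYP cells were treated with compounds alongside 1 μM FCCP/oligomycin or no toxin for 6 or 6.5 h. Cell death was scored by DAPI staining, with H2O2 treatment as the death control.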

Kinetic solubility = format: physicochemical
[3] = Inspection of crystallization and round cells; format: physicochemical; design: key: 1=yes crystals; 0=no crystals
Procedure: 5. Inspection of Crystallization and Round Cells
Briefly, the Hela MKYP (Mito-Keima/YFP-Parkin) cells were seeded at 10K cells/well. EP/MTK compounds were added at seeding (cells were still in suspension). The cells were incubated with the EP/MTK compounds for 16 hours, then 1 μM FCCP/oligomycin was added for 6 hours. Prior to harvesting, cells were scored by eye under 20× magnification for the presence or absence of crystalline or aggregated compound, or round cells.

[4] = HeLa mKeima assay, read-out: Mitophagy EC50 (HeLa mKeima assay)
[5] = read-out: Mitophagy induction EC50

SMILES	EC50 (HeLa MKYP cells [1]; [4]) [nM]	EC50 (HeLa MKYP cells [1]; [5]) [nM]	Max cell death at 25 μM compound, 1 uM FO (%) (HeLa MKYP cells [2]; 25 μM compound)	Cell death at 25 μM (no FO) (%) (HeLa MKYP cells [2]; 25 μM compound, no FO)	Highest safe dose (cytotoxicity; no FO; safe means DAPI+ <20%) (HeLa MKYP cells [2]; no FO) [µM]	Max % death with 1 μM FO (HeLa MKYP cells [2]; with 1 μM FO) [%]	solubility kinetic (Kinetic solubility) [µM]	Mitophagy EC50 (HeLa mKeima assay) (μM) (HeLa MKYP cells [1]; HeLa mKeima assay)	E102 max mitophagy, fold over DMSO (HeLa MKYP cells [1]; 1 μM FCCP/oligomycin) [fold over DMSO]	E101 lowest effective dose (HeLa MKYP cells [1]; mitophagy, 1 μM FCCP/oligomycin) [µM]	E105 death at 8.3 μM (no FO) (HeLa MKYP cells [2]; 8.3 μM compound, no FO)	E104 death at 25 μM (no FO) (HeLa MKYP cells [2]; 25 μM compound, no FO)	E103 max death with 1 μM FO (HeLa MKYP cells [2]; with 1 μM FO)	visual inspection of crystallization ([3]; 0.1 μM compound)	visual inspection of crystallization ([3]; 0.3 μM compound)	visual inspection of crystallization ([3]; 0.9 μM compound)	visual inspection of crystallization ([3]; 2.8 μM compound)	visual inspection of crystallization ([3]; 8.3 μM compound)	visual inspection of crystallization ([3]; 25.0 μM compound, HeLa MKYP culture, 20× magnification)
O=C1COCCN1[C@H]1CCc2ccccc2[C@@H]1Nc1ncnc2[nH]c(C(F)(F)F)cc12 (single isomer, unassigned) [EP-0038378]	2770	> 25000	15.4	4.55	25.0	15.4	3.02 (≈ 1.3 µg/mL)												
COC1CCN([C@H]2CCc3ccccc3[C@@H]2Nc2ncnc3[nH]c(C(F)(F)F)cc23)CC1 [EP-0038282]		> 25000	97.5	66.6	2.8	97.5	134 (≈ 59.7 µg/mL)	Minimal											
FC(F)(F)c1cc2c(N[C@@H]3c4ccccc4CC[C@H]3N3CCOCC3)ncnc2[nH]1 (single isomer, unassigned) [EP-0038099]			13.7	4.11			14.1 (≈ 5.89 µg/mL)	Minimal	7.78	25.00	2.41	4.11	13.71						
c1coc(CNc2ncnc3[nH]cnc23)c1 [Kinetin, kinetin, reference compound]														0	0	0	0	0	0
FC(F)(F)c1cc2c(N[C@H]3c4ccccc4CC[C@@H]3N3C4CCC3COC4)ncnc2[nH]1 [EP-0038283]		> 25000	98	9.6	8.3	98.0	1 (≈ 0.443 µg/mL)	Minimal											
FC(F)(F)c1cc2c(N[C@H]3c4ccccc4CC[C@@H]3N3CC4(COC4)C3)ncnc2[nH]1 [EP-0038249]	2730	> 25000	37.3	3.69	25.0	37.3	157 (≈ 67.4 µg/mL)												
FC1(F)CCN([C@H]2CCc3ccccc3[C@@H]2Nc2ncnc3[nH]c(C(F)(F)F)cc23)CC1 (single isomer, unassigned) [EP-0038393]	2430	> 25000	17.6	1.98	25.0	17.6	1 (≈ 0.451 µg/mL)												
c1ccc2c(c1)CC[C@H](N1CCOCC1)[C@H]2Nc1ncnc2[nH]cnc12 [EP-0039678]			2.27	1.77			164 (≈ 57.5 µg/mL)	Minimal											
